Data from paper PMC4990076 (MedChemComm, 2016).

Target: human Icmt (hIcmt) (Homo sapiens, UniProt O60725)
Experiment: in vitro vapor diffusion assay for hIcmt activity
Type: biochemical
Conditions: not given

Chain of human Icmt (hIcmt) (O60725 whole entry, the tested form may be a part): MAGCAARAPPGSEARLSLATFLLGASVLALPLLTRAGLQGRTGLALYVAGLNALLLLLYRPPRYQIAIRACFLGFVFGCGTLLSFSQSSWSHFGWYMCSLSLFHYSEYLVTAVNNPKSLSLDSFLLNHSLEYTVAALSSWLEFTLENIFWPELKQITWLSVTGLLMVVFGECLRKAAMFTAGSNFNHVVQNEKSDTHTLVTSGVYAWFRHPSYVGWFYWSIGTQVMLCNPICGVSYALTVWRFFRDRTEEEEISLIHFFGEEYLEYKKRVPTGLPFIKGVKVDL

Compound	hIcmt inhibitory activity (in words)
c1ccc2cc(CC3CCOCC3)ccc2c1 [Compound 7]	abolished activity
c1ccc(C(=C2CCOCC2)c2cccs2)cc1 [Compound 10]	inactive
c1csc(C(c2ccc3ccccc3c2)C2CCNCC2)c1 (centres unmarked) [Compound 11]	not active
CN1CCC(C(c2ccc3ccccc3c2)c2cccs2)CC1 (centres unmarked) [Compound 12]	not active
c1ccc(C(=C2CCOCC2)c2ccc3ccccc3c2)cc1 [Compound 6]	inactive
O=C(c1ccc2ccccc2c1)C1CCOCC1 [Compound 8]	abolished activity
OC(c1ccccc1)(c1cccs1)C1CCOCC1 (centres unmarked) [Compound 9]	inactive

System: Ras localization
Experiment: not given
Conditions: at micromolar concentrations; cited from earlier work

Compound	Ras mislocalization in cells
CCCCCCCCn1cc(CC(N)=O)c2cc(-c3cccc(C)c3)ccc21 [Cysmethynil]	causes Ras mislocalization
